Measurements from US6689381B2, “Liposomal benzoquinazoline thymidylate synthase inhibitor formulations” (OSI Pharmaceuticals, Inc., priority 2000, dated 2004).

Columns and labels:
[1] = test system: human colon tumor xenograft model (HCT-8, thymidine kinase (TK)-/-); experiment: HCT-8 xenograft, second study: liposomal GW1843U89 versus free drug (Table 26); format: in vivo, Female Nu/Nu mice
Source text: Female Nu/Nu mice (18-24 g, 10-14 weeks old) were obtained from Harlan Sprague Dawley, and housed in microisolator filtration racks and maintained with filtered acidified water and sterile lab chow ad libitum. The human colon tumor xenograft model (HCT-8, thymidine kinase (TK)−/−) was obtained from Dr. Youcef M. Rustum (Roswell Park, Buffalo, N.Y.), and established in-house as a useful model for evaluation of thymidylate synthase inhibitors. Animals were allowed to acclimate to their new environment for 1 week prior to tumor cell implantation. Tumors were established by injecting harvested tumor cells in a single subcutaneous site on the flank of the mice in the axillary region. The tumors were grown until approximately 200+/−50 mm^3 in size. The animals were then sorted according to body weight, grouped four animals/cage, and tattooed on the tail for permanent identification. […] Tumor volumes were determined with vernier caliper measurements taken at right angles using the formula, (L×W^2/2) and body weights, were collected twice weekly. Data was plotted as % change in body weight vs. time in days, and % tumor volume increase vs. days.
T=(mean) time in days for treated group to reach cutoff size (2 grams)
C=(mean) time in days for control group to reach cutoff size (2 grams)
WC is the mean tumor weight of control group at time x
Wt is mean tumor weight of treated group at time x
% Regression=100 (Wo−Wi)/Wo; where Wo is the mean tumor weight for treated group at the initiation of treatment and Wi=the mean tumor weight for that group at time some time x after treatment. Many times the time x=24-48 hr after the final dose of therapy.
The log10 cell kill (gross)=[T−C value in days/(3.32)(Td)
Where T−C=time difference in days between Treated and Control tumors to reach a defined end point; and Td is the Tumor Volume Doubling time in days from the best-fit straight line from a log-linear growth plot of the control tumors exponential growth (100-800 mg range). […]

in vivo = experiment: in vivo; parameters: species or system Male Sprague-Dawley rats; settings: male, Sprague-Dawley, rat, iv, 1 mg/kg
Procedure: GW1843 (M.W. 500.51 g/mol) was obtained from Glaxo Wellcome, Inc. and suspended as an aqueous. Briefly, 616.74 milligrams of GW1843 was suspended in 1.4 mL 2 N NaOH. The solution was mixed until dissolved. To the dissolved solution 30 mL saline was added. The pH was adjusted to 7.15 with 2 N HCl. Finally, the solution was brought to 46.545 mL with saline. The nominal concentration was 13.25 mg/mL. UV absorption in 0.1 N sodium hydroxide at 266 nm, based on an extinction coefficient of 4.34×104 cm^−1 M^−1, determined the concentration. The concentration by UV spectroscopy was 13.97 mg/mL (5.4% difference from expected). The value determined by spectroscopy was utilized for standards in the HPLC assay. NX1843 lot SMC-991-96 (see Table 1A) was used for making quality control solutions.
Male Sprague-Dawley rats weighing 343.91 to 420.19 grams were used for the study. The in-life phase of the study was conducted in Boulder Colo. in accordance with the guidelines for animal welfare and care (NRC Publication Guide for the Care and Use of Laboratory Animals, 1996). IACUC protocol number N98010. Animals were allowed free access to food and water before and during treatment.
Individual animals treated with NX1843 were weighed and dosed at 1 mg/kg body weight by intravenous bolus administration into the tail vein while under isoflurane anesthesia.
Serial EDTA-blood samples (0.5 mL) were obtained at 5, 15, 30 and 45 minutes, and 1, 1.5 and 2 hr post-dosing for the GW1843 group while animals were under isoflurane anesthesia. For the NX1843 group, serial EDTA-blood samples (0.5 mL) were obtained at 10, 30 and 90 minutes and 4, 8, 24, 32, 48, 72 and 96 hours post-dosing. The EDTA-blood samples were immediately processed for plasma and plasma samples were stored at −20° C. until analysis.
An isocratic reverse phase high performance liquid chromatographic (HPLC) procedure was used for rapid determination of the total GW1843 concentration in rat EDTA-plasma. Following methanol precipitation of plasma protein (2 parts methanol to 1 part plasma), the protein was removed by centrifugation at 14,000×g for 10 minutes. A ZORBAX Eclipse™ XBD-C18 column (3 mm×15 cm) configured with a guard column was used to separate the soluble GW1843 (injection volume 20 μL). The HPLC buffer consisted of 80% 100-mM ammonium acetate pH 5.3, and 20% acetonitrile and the flow rate was 0.4 mL/min. The total run time was seven minutes and GW1843 was detected and quantified by ultraviolet absorbance at 264 nm. The standard curve consisted of free GW1843 spiked rat EDTA-plasma while the quality control samples consisted of NX1843 spiked rat EDTA-plasma. The range of the standard curve was 0.1 to 30.0 μg/mL.
The pharmacokinetic parameters for total GW1843 after i.v administration of GW1843 or liposome encapsulated GW1843 were assessed by a non-compartmental method using WinNonlin (version 1.5). The log/linear trapazoidal rule was used. For non-compartmental analysis, all three time points were utilized for the estimation the elimination phase for free GW1843 while the last 5 time points were utilized to estimate the elimination half-life of NX1843. Cmax values were estimated by extrapolation to zero time. Pharmacokinetic parameters were determined for each animal in the study. From values obtained in each group the mean and SD of each parameter was determined. The parameters estimated included:
The observed clearance (CL) of GW1843 following administration was calculated as: […]
Comparison of treatment groups was performed by unpaired t-tests of data obtained in the same experiment. A p-value of <0.05 was considered significant. Tests were performed using GraphPad Instat version 1.0 (GraphPad Software).

[2] = Concentration of GW1843 in Plasma

Cc1nc2ccc3ccc(CNc4ccc5c(c4)CN(C(CCC(=O)O)C(=O)O)C5=O)cc3c2c(=O)[nH]1 (stereo not drawn) [GW1843]
log cell kill ([1]; 25 mg/kg every day (total 350 mg/kg)): 1.5
log cell kill ([1]; 50 mg/kg every day (total 700 mg/kg)): 3.5
tumor regression ([1]; 25 and 50 mg/kg every day): no tumor regression occurred
volume of distribution of free drug relative to the liposome formulation (in vivo): ~14.6 fold
AUC(0-inf) (in vivo; AUC(0-inf)): 270 ± 28 ng·h/mL
AUC(0-t) (in vivo; AUC(0-last)): 250 ng·h/mL
clearance (in vivo; CL): 61 mL/min/kg
Cmax (in vivo; Cmax): 1620 to 1990 ng/mL
concentration at 0.083 hr (in vivo; [2]): 991 ng/mL
concentration at 0.25 hr (in vivo; [2]): 214 ng/mL
concentration at 0.5 hr (in vivo; [2]): 117 ng/mL
MRT inf (in vivo; MRT(0-inf)): 10.8 min
half-life (in vivo; T½ (terminal half-life)): 8.52 ± 0.42 min
Vd (in vivo; Vss): 0.654 L/kg
clearance (in vivo; plasma clearance): 62.3 mL/min
